Experimental data: patent US20240166609A1, “ANTIBACTERIAL COMPOUNDS” (BLACKSMITH MEDICINES, INC., priority 2021, published 2024)
In brackets after ≈: the same amount, converted by molar mass.

Columns and labels:
Test in all cases: Bacterial susceptibility testing, MIC by broth microdilution (CLSI)
Format in all cases: cell-based
P. aeruginosa 209 PAO1 = settings: Pseudomonas aeruginosa, 35° C., 18-24 h, read-out: MIC (μg/mL) P. aeruginosa 209 PAO1
Protocol: (§1) Minimal inhibitory concentrations (MIC) were determined by the broth microdilution method in accordance with the Clinical and Laboratory Standards Institute (CLSI) guidelines. In brief, organism suspensions were adjusted to a final inoculum between 3×10^5 and 7×10^5 colony-forming units (CFU)/mL. Drug dilutions and inocula were made in sterile, cation adjusted Mueller-Hinton Broth (Beckton Dickinson). In wells, an inoculum volume of 100 μL was mixed to 2 μL of DMSO with 2-fold serial dilutions of drug. All inoculated microdilution trays were incubated in ambient air at 35° C. for 18-24 h. Following incubation, the lowest concentration of the drug that prevented visible growth (OD600 nm<0.05) was recorded as the MIC. Performance of the assay was monitored by the use of laboratory quality-control strains and compounds with defined MIC spectrum, in accordance with CLSI guidelines

K. pneumoniae ATCC13883 = settings: Klebsiella pneumoniae, 35° C., 18-24 h, read-out: MIC (μg/mL) K. pneumoniae ATCC13883
Protocol: as §1

P. aeruginosa ATCC27835 = settings: Pseudomonas aeruginosa, 35° C., 18-24 h, read-out: MIC (μg/mL) P. aeruginosa ATCC27835
Protocol: as §1

E. coli ATCC25922 = settings: Escherichia coli, 35° C., 18-24 h, read-out: MIC (μg/mL) E. coli ATCC25922
Protocol: as §1

Compound	MIC (P. aeruginosa 209 PAO1)	MIC (K. pneumoniae ATCC13883)	MIC (P. aeruginosa ATCC27835)	MIC (E. coli ATCC25922)
C[C@@H](O)c1nccn1[C@H](C#Cc1ccc(-c2ccc(OCC(N)CO)cc2)cc1)CO (mixture of isomers) [Compound 1, (2R)-4-(4′-(2-amino-3-hydroxypropoxy)-[1,1′-biphenyl]-4-yl)-2-(2-((R)-1-hydroxyethyl)-1H-imidazol-1-yl)but-3-yn-1-ol]	1 µg/mL (≈ 2.37 µM)	32 µg/mL (≈ 75.9 µM)	1 µg/mL (≈ 2.37 µM)	8 µg/mL (≈ 19 µM)
C[C@H](O)c1nccn1[C@@H](C#Cc1ccc(-c2ccc(O[C@@H]3C[C@H]3N)cc2)cc1)CO (racemic) [Compound 4, (S)-4-(4′-((trans)-2-aminocyclopropoxy)-[1,1′-biphenyl]-4-yl)-2-(2-((S)-1-hydroxyethyl)-1H-imidazol-1-yl)but-3-yn-1-ol]	2 µg/mL (≈ 4.96 µM)	0.5 µg/mL (≈ 1.24 µM)	2 µg/mL (≈ 4.96 µM)	0.25 µg/mL (≈ 0.62 µM)
C[C@H](O)c1nccn1[C@@H](C#Cc1ccc(-c2ccc(COCC(N)CO)cc2)cc1)CO (mixture of isomers) [Compound 6, (2S)-4-(4′-((2-amino-3-hydroxypropoxy)methyl)-[1,1′-biphenyl]-4-yl)-2-(2-((S)-1-hydroxyethyl)-1H-imidazol-1-yl)but-3-yn-1-ol]	2 µg/mL (≈ 4.59 µM)	32 µg/mL (≈ 73.5 µM)	4 µg/mL (≈ 9.18 µM)	16 µg/mL (≈ 36.7 µM)
C[C@H](O)c1nccn1[C@@H](C#Cc1ccc(-c2ccc(O[C@H]3COC[C@@H]3O)cc2)cc1)CO (racemic) [Compound 46, (cis)-4-((4′-((S)-4-hydroxy-3-(2-((S)-1-hydroxyethyl)-1H-imidazol-1-yl)but-1-yn-1-yl)-[1,1′-biphenyl]-4-yl)oxy)tetrahydrofuran-3-ol]	1 µg/mL (≈ 2.3 µM)	2 µg/mL (≈ 4.6 µM)	2 µg/mL (≈ 4.6 µM)	1 µg/mL (≈ 2.3 µM)
C[C@H](O)c1nccn1[C@H](C#Cc1ccc(-c2ccc(OC[C@@H](N)CO)cc2)cc1)CO [Compound 2, (R)-4-(4′-((S)-2-amino-3-hydroxypropoxy)-[1,1′-biphenyl]-4-yl)-2-(2-((S)-1-hydroxyethyl)-1H-imidazol-1-yl)but-3-yn-1-ol]	2 µg/mL (≈ 4.74 µM)	16 µg/mL (≈ 38 µM)	2 µg/mL (≈ 4.74 µM)	8 µg/mL (≈ 19 µM)
C[C@H](O)c1nccn1CC#Cc1ccc(-c2ccc(C3CC(NCC(=N)N)C3)cc2)cc1 (stereo partly drawn) [Compound 25, (S)-2-((3-(4′-(3-(2-(1-hydroxyethyl)-1H-imidazol-1-yl)prop-1-yn-1-yl)-[1,1′-biphenyl]-4-yl)cyclobutyl)amino)acetimidamide]	2 µg/mL (≈ 4.68 µM)	0.5 µg/mL (≈ 1.17 µM)	4 µg/mL (≈ 9.36 µM)	
C[C@H](O)c1nccn1CC#Cc1ccc(-c2ccc(C3CC(NCC(=O)O)C3)cc2)cc1 (stereo partly drawn) [Compound 26, (S)-(3-(4′-(3-(2-(1-hydroxyethyl)-1H-imidazol-1-yl)prop-1-yn-1-yl)-[1,1′-biphenyl]-4-yl)cyclobutyl)glycine]	4 µg/mL (≈ 9.31 µM)	4 µg/mL (≈ 9.31 µM)	4 µg/mL (≈ 9.31 µM)	
C[C@H](O)c1nccn1[C@@H](C#Cc1ccc(-c2ccc(C3CC(NCC#N)C3)cc2)cc1)CO (stereo partly drawn) [Compound 28, 2-((3-(4′-((S)-4-hydroxy-3-(2-((S)-1-hydroxyethyl)-1H-imidazol-1-yl)but-1-yn-1-yl)-[1,1′-biphenyl]-4-yl)cyclobutyl)amino)acetonitrile]	2 µg/mL (≈ 4.54 µM)	0.5 µg/mL (≈ 1.13 µM)	4 µg/mL (≈ 9.08 µM)	
C[C@H](O)c1nccn1[C@@H](C#Cc1ccc(-c2ccc(C3CC(O)C3)cc2)cc1)CO (stereo partly drawn) [Compound 30, 3-(4′-((S)-4-hydroxy-3-(2-((S)-1-hydroxyethyl)-1H-imidazol-1-yl)but-1-yn-1-yl)-[1,1′-biphenyl]-4-yl)cyclobutan-1-ol]	0.5 µg/mL (≈ 1.24 µM)	0.5 µg/mL (≈ 1.24 µM)	2 µg/mL (≈ 4.97 µM)	
C[C@H](O)c1nccn1[C@@H](C#Cc1ccc(-c2ccc(C3CC(NCCC#N)C3)cc2)cc1)CO (stereo partly drawn) [Compound 32, 3-((3-(4′-((S)-4-hydroxy-3-(2-((S)-1-hydroxyethyl)-1H-imidazol-1-yl)but-1-yn-1-yl)-[1,1′-biphenyl]-4-yl)cyclobutyl)amino)propanenitrile]	1 µg/mL (≈ 2.2 µM)	0.5 µg/mL (≈ 1.1 µM)	4 µg/mL (≈ 8.8 µM)	
C[C@H](O)c1nccn1[C@@H](C#Cc1ccc(-c2ccc(C3CC(NC(C#N)CO)C3)cc2)cc1)CO (stereo partly drawn) [Compound 33, 3-hydroxy-2-((3-(4′-((S)-4-hydroxy-3-(2-((S)-1-hydroxyethyl)-1H-imidazol-1-yl)but-1-yn-1-yl)-[1,1′-biphenyl]-4-yl)cyclobutyl)amino)propanenitrile]	2 µg/mL (≈ 4.25 µM)	4 µg/mL (≈ 8.5 µM)	2 µg/mL (≈ 4.25 µM)	
C[C@H](O)c1nccn1[C@@H](C#Cc1ccc(-c2ccc(C3CC(NCc4noc(C(N)=O)n4)C3)cc2)cc1)CO (stereo partly drawn) [Compound 35, 3-(((3-(4′-((S)-4-hydroxy-3-(2-((S)-1-hydroxyethyl)-1H-imidazol-1-yl)but-1-yn-1-yl)-[1,1′-biphenyl]-4-yl)cyclobutyl)amino)methyl)-1,2,4-oxadiazole-5-carboxamide]	4 µg/mL (≈ 7.6 µM)	2 µg/mL (≈ 3.8 µM)	4 µg/mL (≈ 7.6 µM)	0.5 µg/mL (≈ 0.949 µM)
CC(CNC1CC(c2ccc(-c3ccc(C#C[C@@H](CO)n4ccnc4[C@H](C)O)cc3)cc2)C1)C(=O)O (stereo partly drawn) [Compound 37, 3-((3-(4′-((S)-4-hydroxy-3-(2-((S)-1-hydroxyethyl)-1H-imidazol-1-yl)but-1-yn-1-yl)-[1,1′-biphenyl]-4-yl)cyclobutyl)amino)-2-methylpropanoic acid]	4 µg/mL (≈ 8.2 µM)	8 µg/mL (≈ 16.4 µM)	4 µg/mL (≈ 8.2 µM)	2 µg/mL (≈ 4.1 µM)
C[C@H](O)c1nccn1[C@@H](C#Cc1ccc(-c2ccc(C3CC(NC4C(O)OC(CO)C(O)C4O)C3)cc2)cc1)CO (stereo partly drawn) [Compound 39, 3-((3-(4′-((S)-4-hydroxy-3-(2-((S)-1-hydroxyethyl)-1H-imidazol-1-yl)but-1-yn-1-yl)-[1,1′-biphenyl]-4-yl)cyclobutyl)amino)-6-(hydroxymethyl)tetrahydro-2H-pyran-2,4,5-triol]	4 µg/mL (≈ 7.1 µM)	32 µg/mL (≈ 56.8 µM)	8 µg/mL (≈ 14.2 µM)	8 µg/mL (≈ 14.2 µM)
C[C@H](O)c1nccn1[C@@H](C#Cc1ccc(-c2ccc(C3CC(NC(=O)CC#N)C3)cc2)cc1)CO (stereo partly drawn) [Compound 40, 2-cyano-N-(3-(4′-((S)-4-hydroxy-3-(2-((S)-1-hydroxyethyl)-1H-imidazol-1-yl)but-1-yn-1-yl)-[1,1′-biphenyl]-4-yl)cyclobutyl)acetamide]	4 µg/mL (≈ 8.54 µM)	2 µg/mL (≈ 4.27 µM)	2 µg/mL (≈ 4.27 µM)	0.5 µg/mL (≈ 1.07 µM)

Next, values leading:

MIC (P. aeruginosa 209 PAO1)	MIC (K. pneumoniae ATCC13883)	MIC (P. aeruginosa ATCC27835)	MIC (E. coli ATCC25922)	Compound
4 µg/mL (≈ 10.2 µM)	16 µg/mL (≈ 40.8 µM)	4 µg/mL (≈ 10.2 µM)	8 µg/mL (≈ 20.4 µM)	C[C@H](O)c1nccn1[C@@H](C#Cc1ccc(-c2ccc(C(O)CO)cc2)cc1)CO (mixture of isomers) [Compound 5, 1-(4′-((S)-4-hydroxy-3-(2-((S)-1-hydroxyethyl)-1H-imidazol-1-yl)but-1-yn-1-yl)-[1,1′-biphenyl]-4-yl)ethane-1,2-diol]
2 µg/mL (≈ 4.42 µM)	0.5 µg/mL (≈ 1.1 µM)	4 µg/mL (≈ 8.84 µM)		C[C@H](O)c1nccn1CC#Cc1ccc(-c2ccc(C3CC(NCc4cocn4)C3)cc2)cc1 (stereo partly drawn) [Compound 27, (S)-1-(1-(3-(4′-(3-((oxazol-4-ylmethyl)amino)cyclobutyl)-[1,1′-biphenyl]-4-yl)prop-2-yn-1-yl)-1H-imidazol-2-yl)ethan-1-ol]
2 µg/mL (≈ 4.14 µM)	0.5 µg/mL (≈ 1.03 µM)	2 µg/mL (≈ 4.14 µM)		C[C@H](O)c1nccn1[C@@H](C#Cc1ccc(-c2ccc(C3CC(NCc4ncon4)C3)cc2)cc1)CO (stereo partly drawn) [Compound 29, (S)-4-(4′-(3-(((1,2,4-oxadiazol-3-yl)methyl)amino)cyclobutyl)-[1,1′-biphenyl]-4-yl)-2-(2-((S)-1-hydroxyethyl)-1H-imidazol-1-yl)but-3-yn-1-ol]
2 µg/mL (≈ 4.3 µM)	0.25 µg/mL (≈ 0.537 µM)	4 µg/mL (≈ 8.59 µM)		C[C@H](O)c1nccn1[C@@H](C#Cc1ccc(-c2ccc(C3CC(NCC(F)F)C3)cc2)cc1)CO (stereo partly drawn) [Compound 31, (S)-4-(4′-(3-((2,2-difluoroethyl)amino)cyclobutyl)-[1,1′-biphenyl]-4-yl)-2-(2-((S)-1-hydroxyethyl)-1H-imidazol-1-yl)but-3-yn-1-ol]
2 µg/mL (≈ 4.04 µM)	2 µg/mL (≈ 4.04 µM)	4 µg/mL (≈ 8.07 µM)	0.5 µg/mL (≈ 1.01 µM)	C[C@H](O)c1nccn1[C@@H](C#Cc1ccc(-c2ccc(C3CC(NCC(F)(F)CO)C3)cc2)cc1)CO (stereo partly drawn) [Compound 34, (S)-4-(4′-(3-((2,2-difluoro-3-hydroxypropyl)amino)cyclobutyl)-[1,1′-biphenyl]-4-yl)-2-(2-((S)-1-hydroxyethyl)-1H-imidazol-1-yl)but-3-yn-1-ol]
1 µg/mL (≈ 2.09 µM)	1 µg/mL (≈ 2.09 µM)	2 µg/mL (≈ 4.17 µM)	0.25 µg/mL (≈ 0.521 µM)	C[C@H](O)c1nccn1[C@@H](C#Cc1ccc(-c2ccc([C@H]3C[C@H](NS(C)(=O)=O)C3)cc2)cc1)CO [Compound 36, N-((1S,3r)-3-(4′-((S)-4-hydroxy-3-(2-((S)-1-hydroxyethyl)-1H-imidazol-1-yl)but-1-yn-1-yl)-[1,1′-biphenyl]-4-yl)cyclobutyl)methanesulfonamide]
4 µg/mL (≈ 8.2 µM)	8 µg/mL (≈ 16.4 µM)	4 µg/mL (≈ 8.2 µM)	2 µg/mL (≈ 4.1 µM)	C[C@H](O)c1nccn1[C@@H](C#Cc1ccc(-c2ccc(C3CC(N[C@H]4COC[C@@H]4O)C3)cc2)cc1)CO (stereo partly drawn) [Compound 38, (3R,4S)-4-((3-(4′-((S)-4-hydroxy-3-(2-((S)-1-hydroxyethyl)-1H-imidazol-1-yl)but-1-yn-1-yl)-[1,1′-biphenyl]-4-yl)cyclobutyl)amino)tetrahydrofuran-3-ol]
